Converted amounts (≈) assume the structure as drawn. “And” between values parts separate entries of the source, which are not always exact repeats. Identical values can stand only once. Like-named read-outs stand apart in the source and are kept apart here. *1 amine or outer side, *2 acyl side, *3 side chain or, on linkers, in order; H or OH if unused. Where a SMILES comes first, the peptide text is derived from it. [ ]: non-standard residue; d: D form. X1 = C#CCn1cc(C[C@H](N[*:1])C(=O)[*:2])c2ccccc21; NMeLeu(5-OH,4R) = CN[C@@H](C[C@@H](C)CO)C(=O)O; Phe(βR-OMe) = CO[C@H](c1ccccc1)[C@H](N)C(=O)O; NMeL = CN[C@@H](CC(C)C)C(=O)O
Columns and labels:
[1] = assay type: in vitro ADME, Rat; settings: rat, pH 7.4
[2] = system: Mtb (katG del) ATCC 35822; experiment: microbe, parasite or virus in culture; assay type: cell-based; settings: Mycobacterium tuberculosis
Mtb # 11291 = experiment: microbe, parasite or virus in culture; assay type: cell-based; settings: single well replicates
Staphylococcus aureus = experiment: MIC ESKAPES panel, Staphylococcus aureus; assay type: cell-based
Protocol: (§1) Minimum inhibitory concentration (MIC) against ESKAPES panel of Gram positive and Gram negative pathogens (Enterococcus faecium, Staphylococcus aureus, Klebsiella pneumoniae, Acinetobacter baumannii, Pseudomonas aeruginosa, Enterobacter cloacae and Salmonella typhimurium [ESKAPES panel]) were determined at the FNDR by the standard broth dilution method [CLSI, M100]. […] Mueller Hinton broth (MHB) medium was used to grow ESKAPES panel strains. The individual cultures were added as 200 μL (inoculum of 3–7 × 10^5 cfu/ml) to the respective assay plates in each well to all columns, except the media control (200 μL of medium). […] The assay plates were incubated at 37 °C, and the results were noted on the 2nd day as turbidometric readout. The clear wells indicated inhibition of growth, while the turbid wells indicated uninhibited growth.

Enterobacter cloacae = experiment: MIC ESKAPES panel, Enterobacter cloacae; assay type: cell-based
Protocol: as §1

in vivo = assay type: in vivo, BALB/cAnNCrl mice
Protocol: The in-life experimental procedures were conducted in strict compliance with German and European animal welfare legislation in an AAALAC-accredited facility. Male BALB/cAnNCrl mice (Charles River Laboratories Research Models and Services, 97633 Sulzfeld, Germany) were used. Animals were 9 weeks old at dosing with a body weight of 21.6–24.3 g. Animals were delivered free of pathogens according to FELASA recommendations with a health certificate provided by the breeder. Upon receipt, the state of health and sex was checked. Animals acclimatized for at least 5 days before the commencement of the in-life phase. During acclimation, animals were group-housed in individually ventilated cages, on birch wood granulate bedding with species-specific enrichment (nesting material, mouse igloo, gnawing wood). During experimental conduct, animals were housed in conventional cages with elevated grid floors. Grid floor was used to avoid contamination with test item material excreted via urine and feces and subsequent reuptake during fur grooming. No bedding and enrichment were provided except a cage divider, which can be used as a shelter. Animals always had unlimited access to food and water and received a pelleted, total pathogen-free maintenance diet and tap drinking water, sterilized by filter.
In case of incomplete dissolution, the formulation was filtered at 40 °C (non-pyrogenic sterile-R filter, 0.2 µm). All formulations were stirred warm until administration. Actual test item content was determined bioanalytically.
Male BALB/cAnNCrl mice (n = 3 per test item and administration route) received a bolus dose of the formulated test item(s) (1 mg/kg iv, 30 mg/kg po) at t = 0 h, and whole blood samples were collected subsequently (35 µl at 0.1 (iv) / 0.25 (po), 0.5, 1, 2, 4, 6 h; 600 µl at sacrifice after 24 h). Animals were euthanized by exsanguination in deep isoflurane anesthesia. Whole blood samples were immediately stored on ice at about 4 °C. Plasma was separated by centrifugation at approximately 10,000 × g for 5 m at +4 °C. Centrifugation of each blood sample was started within 10 m after collection. A single aliquot of at least 15 µL of plasma was prepared and immediately stored at −20 ± 5 °C.
Sample proteins were precipitated with ACN (1 + 12, v/v) containing internal standard, and supernatants analyzed by quantitative UPLC-MS/MS: Phenomenex Luna Omega C18, 2.1 × 50 mm, 1.6 µm, 40 °C, gradient between 10% - 90% ACN with 0.1% formic acid. LogD determination: Lipophilicity of the test items, expressed as chromLogD7.5, was assessed by measuring their chromatographic retention times on C18-material. The chromatographic retention versus logD7.5 values of a series of thirteen n-alkan-2-ones (2-butanone – 2-hexadecanone) served as lipophilicity calibration.

[3] = system: replicating Mtb H37Rv cells; experiment: Resazurin growth assay, replicating Mtb H37Rv (Supplementary Fig. 2); assay type: cell-based, Mycobacterium tuberculosis; settings: three replicate columns
[4] = iv bolus, individual animals 1-3
[5] = male, BALB/cAnNCrl, mouse, in vivo, iv, 1.062 umol/kg, iv bolus, individual animals 1-3
[6] = male, BALB/cAnNCrl, mouse, in vivo, iv, 1.062 umol/kg, iv bolus, mice, Mean

C#CCn1cc(C[C@@H]2NC(=O)[C@H](C(C)C)NC(=O)[C@H](CC(C)C)N(C)C(=O)[C@H](C(C)C)NC(=O)[C@H]([C@H](OC)c3ccccc3)NC(=O)[C@H](C)NC(=O)[C@H](C[C@@H](C)CO)N(C)C2=O)c2ccccc21 [Compound 5] (cyclo(A[Phe(βR-OMe)]V[NMeL]V[X1][NMeLeu(5-OH,4R)]))
Hepatocyte Rat [1]: 51 %Qh
Hepatocyte Stability Rat QH [1]: 51.066%
MIC ([2]; ATCC35822, M. tuberculosis ATCC 35822, single well replicates): 0.781 µM (≈ 0.735 µg/mL)
MIC ([2]; ATCC35822, Mtb (katG del) ATCC 35822, mean ± SD, n = 3 well replicates): 0.8 µM (≈ 0.753 µg/mL)
MIC Mtb # 11291 (Mtb # 11291): 0.18 µg/mL (≈ 0.191 µM)
MIC (Mtb # 11291; read-out: MIC Mtb # 11291): 0.19 µM (≈ 0.179 µg/mL)
MIC (Staphylococcus aureus; Gram-Positive Bacteria, replicates 1-3): >50 µM
MIC (Staphylococcus aureus; Staphylococcus aureus, Gram positive, n = 3 well replicates): > 50 µM
MIC (Staphylococcus aureus; Staphylococcus aureus, Gram-Positive Bacteria, replicates 1-3): > 47 µg/mL
MIC (Enterobacter cloacae; Enterobacter cloacae, Gram negative, n = 3 well replicates): > 50 µM
MIC (Enterobacter cloacae; Enterobacter cloacae, Gram-Negative Bacteria, replicates 1-3): > 47 µg/mL
MIC (Enterobacter cloacae; Gram-Negative Bacteria, replicates 1-3): >50 µM
AUC0-inf/Dose (in vivo; [4]): 180 h nM/(nmol kg-1) and 169 h nM/(nmol kg-1) and 158 h nM/(nmol kg-1)
AUC0-t/Dose (in vivo; [4]): 177 h nM/(nmol kg-1) and 161 h nM/(nmol kg-1) and 154 h nM/(nmol kg-1)
CL (in vivo; [4]): 98.5 mL/min/kg and 106 mL/min/kg
CL PL QH (in vivo; [4]): 103.0% and 109.0% and 117.0%
Cmax/Dose (in vivo; [4]): 488 nM/(nmol kg-1) and 361 nM/(nmol kg-1) and 396 nM/(nmol kg-1)
MRT (in vivo; [4]): 54 min and 42 min
Plasma concentration 0.1 h (in vivo; [4]): 518 nM and 384 nM and 421 nM
Plasma concentration 0.5 h (in vivo; [4]): 85.1 nM and 88.1 nM and 71.5 nM
Plasma concentration 1 h (in vivo; [4]): 33.6 nM and 37.9 nM and 32.6 nM
Plasma concentration 2 h (in vivo; [4]): 12.3 nM and 14.2 nM and 13.4 nM
Plasma concentration 4 h (in vivo; [4]): 2.7 nM and 4.8 nM and 2.9 nM
Vss (in vivo; [4]): 5.6 L/kg and 4.6 L/kg
t1/2 (in vivo; [4]): 78 min
AUC0-inf/Dose (in vivo; iv bolus, mice, Mean): 169 h nM/(nmol kg-1)
AUC0-t/Dose (in vivo; iv bolus, mice, Mean): 164 h nM/(nmol kg-1)
CL PL QH (in vivo; iv bolus, mice, Mean): 110.0%
Cmax/Dose (in vivo; iv bolus, mice, Mean): 415 nM/(nmol kg-1)
Plasma concentration 0.1 h (in vivo; iv bolus, mice, Mean): 441 nM
Plasma concentration 0.5 h (in vivo; iv bolus, mice, Mean): 81.6 nM
Plasma concentration 1 h (in vivo; iv bolus, mice, Mean): 34.7 nM
Plasma concentration 2 h (in vivo; iv bolus, mice, Mean): 13.3 nM
Plasma concentration 4 h (in vivo; iv bolus, mice, Mean): 3.5 nM
clearance (in vivo; [5]): 92.3 mL/min/kg
half-life (in vivo; [5]): 54 min
MRT (in vivo; male, BALB/cAnNCrl, mouse, in vivo, iv, 1.062 umol/kg, iv bolus, individual animals 1-3, read-out: MRT): 36 min
Vd (in vivo; male, BALB/cAnNCrl, mouse, in vivo, iv, 1.062 umol/kg, iv bolus, individual animals 1-3, read-out: Vss): 3.5 L/kg
clearance (in vivo; [6]): 98.8 mL/min/kg
half-life (in vivo; [6]): 60 min
MRT (in vivo; male, BALB/cAnNCrl, mouse, in vivo, iv, 1.062 umol/kg, iv bolus, mice, Mean, read-out: MRT): 48 min
Vd (in vivo; male, BALB/cAnNCrl, mouse, in vivo, iv, 1.062 umol/kg, iv bolus, mice, Mean, read-out: Vss): 4.5 L/kg
Vd (in vivo; male, BALB/cAnNCrl, mouse, in vivo, iv, 1 mg/kg, mice, 1 mg kg-1 iv bolus, read-out: VSS): 4.54 L/kg
clearance (in vivo; male, BALB/cAnNCrl, mouse, in vivo, iv, 1 mg/kg, plasma clearance, mice, 1 mg kg-1 iv bolus): 98.8 mL/min/kg
half-life (in vivo; male, BALB/cAnNCrl, mouse, in vivo, iv, 1 mg/kg, plasma, mice, 1 mg kg-1 iv bolus): 61.8 min
AUC (in vivo; mouse, in vivo, iv): 164 h nM/(nmol kg-1)
Cmax (in vivo; mouse, in vivo, iv): 415 nM/(nmol kg-1)
Plasma concentration 6 h (in vivo; mouse, in vivo, iv): BLOQ
Plasma concentration 24 h (in vivo; mouse, in vivo, iv): BLOQ
Supplementary Figure 2 dose-response value, replicating H37Rv cells ([3]; Conc. 0.0488281 µM): 98.0652 and 83.9808 and 80.51
Supplementary Figure 2 dose-response value, replicating H37Rv cells ([3]; Conc. 0.0976562 µM): 93.0506 and 83.7138 and 106.369
Supplementary Figure 2 dose-response value, replicating H37Rv cells ([3]; Conc. 0.195312 µM): 80.9008 and 79.6239 and 83.1102
Supplementary Figure 2 dose-response value, replicating H37Rv cells ([3]; Conc. 0.390625 µM): 100.805 and 94.8498 and 103.432
Supplementary Figure 2 dose-response value, replicating H37Rv cells ([3]; Conc. 0.78125 µM): 90.0247 and 88.21 and 77.7086
Supplementary Figure 2 dose-response value, replicating H37Rv cells ([3]; Conc. 1.5625 µM): 89.1967 and 85.691 and 102.875
Supplementary Figure 2 dose-response value, replicating H37Rv cells ([3]; Conc. 3.125 µM): 81.2645 and 83.4662 and 77.6892
Supplementary Figure 2 dose-response value, replicating H37Rv cells ([3]; Conc. 6.25 µM): 79.2563 and 81.2993 and 97.3301
Supplementary Figure 2 dose-response value, replicating H37Rv cells ([3]; Conc. 25 µM): 23.3248 and 18.2173 and 22.7212
Supplementary Figure 2 dose-response value, replicating H37Rv cells ([3]; Conc. 50 µM): 9.562 and 6.199 and 9.0701
Supplementary Figure 2 dose-response value, replicating H37Rv cells ([3]; Conc. 100 µM): 10.3547 and 8.316 and 5.8624

From article PMC10914731, “Homo-BacPROTAC-induced degradation of ClpC1 as a strategy against drug-resistant mycobacteria” (Nature Communications, 2024)
